Among the data in ChEMBL document CHEMBL1201862, “PubChem BioAssay data set” (2004) are IC50, EC50 and AC50 values, retold here.

The target of assay [1] is Heat shock protein HSP 90-alpha (Homo sapiens, UniProt P07900). Description: Luminescence-based dose response biochemical high throughput screening assay for inhibitors of the Heat Shock Protein 90 (HSP90). [Related pubchem assays: 1831 (Summary AID.), 1846 (Confirmation screen.), 1789 (Primary screen.)].
Assay [2] in a line: inhibitors of intracellular T. cruzi replication, confirmation, NIH3T3 host cells, beta-gal luminescence (AID 2044).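 Note: intracellular parasites grown in NIH/3T3 mouse fibroblasts as host cells; luminescent beta-galactosidase reporter signal from transgenic T. cruzi replicating inside host cells; inhibitors lower the luminescence signal.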 In kind it is functional, cell-based.
The nature of assay [3]: cytotoxicity toward NIH3T3 fibroblasts, dose response, counter-screen, cell-based, ATP luminescence, mouse fibroblasts (AID 2010).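 Note: cells exposed to compound for about 90 hours before reading.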 In kind it is functional. The note with it: NIH3T3. On the technique in general: Counterscreens check selectivity or assay interference.
Assay [4] concerns the target T1, Microphthalmia-associated transcription factor (Homo sapiens, UniProt O75030).
T1 sequence (O75030 whole entry): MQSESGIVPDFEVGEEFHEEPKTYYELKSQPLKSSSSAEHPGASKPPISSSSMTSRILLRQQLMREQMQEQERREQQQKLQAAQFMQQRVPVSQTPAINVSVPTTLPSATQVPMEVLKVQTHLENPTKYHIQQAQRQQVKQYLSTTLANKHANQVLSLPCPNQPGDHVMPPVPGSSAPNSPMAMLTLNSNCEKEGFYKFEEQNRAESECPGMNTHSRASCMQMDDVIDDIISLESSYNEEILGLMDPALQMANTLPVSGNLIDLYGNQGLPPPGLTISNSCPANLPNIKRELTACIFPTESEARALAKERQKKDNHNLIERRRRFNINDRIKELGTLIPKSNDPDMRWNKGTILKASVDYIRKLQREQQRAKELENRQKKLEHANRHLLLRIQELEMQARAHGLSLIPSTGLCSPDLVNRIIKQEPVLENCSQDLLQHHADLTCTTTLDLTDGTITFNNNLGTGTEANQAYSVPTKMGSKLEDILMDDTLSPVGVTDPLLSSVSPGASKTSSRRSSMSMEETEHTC
Description: TRPM1 promoter luciferase signal decrease, dose response, MITF inhibitor project, cell-based, SK-MEL-5, cherry-picked, set 3 (AID 493073).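 Note: SK-MEL-5 melanoma cells with luciferase driven by the MITF target TRPM1 promoter.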 Format: functional.

Assay [5] can be described thus: MALME3 melanoma cell viability reduction, dose response, orthogonal assay for MITF inhibitor project, CellTiter-Glo luminescence, dry powder, set 5 (AID 651584). The note with it: MALME-3. Format: functional, cell-based. (In general: Cellular ATP, detected with luciferase, serves as a proxy for viable cell number.)
Assay [6] is described as follows: A375 melanoma cell cytotoxicity, dose response, counter-screen for MITF inhibitor project, CellTiter-Glo luminescence, dry powder, set 7 (AID 624490). In kind it is functional, cell-based. Conditions: A-375.
Assay [7] is described as follows: MITF Measured in Cell-Based System Using Plate Reader - 2084-01_Inhibitor_Dose_DryPowder_Activity_Set7. Format: functional.
Assay [8] is described as follows: MITF Orthogonal Assay: SK-MEL-5 CTG Assay Measured in Cell-Based System Using Plate Reader - 2084-02_Inhibitor_Dose_DryPowder_Activity_Set5. In kind it is functional.
The nature of assay [9]: A375 melanoma cell cytotoxicity, dose response, counter-screen for MITF inhibitor project, CellTiter-Glo luminescence, dry powder, set 6 (AID 624488). Conditions: A-375. In kind it is functional, cell-based.
Assay [10] can be described thus: A375 melanoma cell viability loss, dose response, counter-screen for MITF modulator project, CellTiter-Glo luminescence, dry powder, set 9 (AID 651591). Conditions: A-375. In kind it is functional, cell-based.
The target in assay [11] is T2, Apoptotic protease-activating factor 1 (Homo sapiens, UniProt O14727).
T2 sequence (O14727 whole entry): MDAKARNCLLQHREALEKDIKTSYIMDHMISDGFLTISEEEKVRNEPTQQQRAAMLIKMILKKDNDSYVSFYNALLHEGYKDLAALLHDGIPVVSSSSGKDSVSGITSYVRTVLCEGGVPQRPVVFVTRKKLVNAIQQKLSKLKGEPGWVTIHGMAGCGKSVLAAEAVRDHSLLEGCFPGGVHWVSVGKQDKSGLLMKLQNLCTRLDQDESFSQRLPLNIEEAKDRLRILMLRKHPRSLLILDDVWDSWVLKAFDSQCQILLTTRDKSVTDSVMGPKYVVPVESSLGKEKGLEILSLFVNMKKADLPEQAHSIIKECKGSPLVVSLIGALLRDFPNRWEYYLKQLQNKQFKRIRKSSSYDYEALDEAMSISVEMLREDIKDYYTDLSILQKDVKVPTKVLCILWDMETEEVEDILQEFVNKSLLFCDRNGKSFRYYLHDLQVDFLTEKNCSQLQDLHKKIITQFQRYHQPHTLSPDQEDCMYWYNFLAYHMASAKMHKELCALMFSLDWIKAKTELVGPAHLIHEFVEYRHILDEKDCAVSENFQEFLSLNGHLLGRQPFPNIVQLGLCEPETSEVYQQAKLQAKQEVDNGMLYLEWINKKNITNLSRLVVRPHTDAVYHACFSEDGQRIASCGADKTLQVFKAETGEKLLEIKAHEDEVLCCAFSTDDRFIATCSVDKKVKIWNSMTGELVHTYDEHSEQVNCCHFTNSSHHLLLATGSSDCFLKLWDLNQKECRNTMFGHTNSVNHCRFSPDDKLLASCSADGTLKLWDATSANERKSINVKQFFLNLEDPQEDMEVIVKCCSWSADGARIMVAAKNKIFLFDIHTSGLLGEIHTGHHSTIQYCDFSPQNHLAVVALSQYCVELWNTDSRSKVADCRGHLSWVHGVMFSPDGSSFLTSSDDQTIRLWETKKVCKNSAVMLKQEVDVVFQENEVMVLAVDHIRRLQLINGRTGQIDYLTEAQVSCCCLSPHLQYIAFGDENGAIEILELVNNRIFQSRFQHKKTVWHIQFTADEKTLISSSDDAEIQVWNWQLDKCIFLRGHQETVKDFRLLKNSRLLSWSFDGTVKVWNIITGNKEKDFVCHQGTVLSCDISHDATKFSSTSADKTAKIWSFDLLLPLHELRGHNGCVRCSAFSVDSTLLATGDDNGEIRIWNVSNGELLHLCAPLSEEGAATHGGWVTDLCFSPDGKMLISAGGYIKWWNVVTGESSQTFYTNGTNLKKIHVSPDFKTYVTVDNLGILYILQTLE
In kind it is functional.

Assay [12] in a line: SK-MEL-5 parental cell viability reduction, dose response, orthogonal assay for MITF inhibitor project, CellTiter-Glo luminescence, dry powder, set 8 (AID 651586). In kind it is functional, cell-based.
Assay [13] is described as follows: MITF Orthogonal Assay: MALME3 CTG Assay Measured in Cell-Based System Using Plate Reader - 2084-04_Inhibitor_Dose_DryPowder_Activity_Set6. Format: functional. Conditions: MALME-3.
Assay [14] in a line: SK-MEL-5 parental line viability, dose response, MITF inhibitor project, cell-based, CellTiter-Glo, dry powder, set 6 (AID 624429). In kind it is functional.
Assay [15] is described as follows: MITF Measured in Cell-Based System Using Plate Reader - 2084-01_Inhibitor_Dose_DryPowder_Activity_Set6. Format: functional.
Assay [16] in a line: A375 melanoma cell viability loss, dose response, counter-screen for MITF inhibitor project, CellTiter-Glo luminescence, dry powder, set 4 (AID 624364).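 Note: A375 melanoma cells are MITF independent so this is a counter screen.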 Conditions: A-375. Format: functional, cell-based.
The nature of assay [17]: A375 melanoma cell cytotoxicity, dose response, counter-screen for MITF inhibitor project, CellTiter-Glo luminescence, dry powder, set 2 (AID 624489).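 Note: actives are compounds lowering A375 viability meaning general cytotoxicity.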 Format: functional, cell-based. Conditions: A-375.
Assay [18] is described as follows: TRPM1 promoter luciferase reporter signal decrease, dose response, MITF inhibitor project, cell-based, SK-MEL-5, dry powder, set 9 (AID 651588). In kind it is functional. For orientation: In a reporter assay the amount or activity of a reporter protein is the signal.
The test system of assay [19] is HT-1080. Description: cytotoxicity in HT1080 fibrosarcoma cells, cell-based, fluorescence readout (AID 620). In kind it is functional. Conditions: Homo sapiens.
Assay [20] concerns the target Glyceraldehyde-3-phosphate dehydrogenase (Homo sapiens, UniProt P04406).
Assay [21] can be described thus: cells. In kind it is functional.

The source made the active and inactive calls.

What is called IC50 is the concentration that inhibits the measured activity by half. As usually defined, the EC50 is the concentration giving half of the maximal effect. The AC50 is the concentration giving half of the maximal activity seen.

Chain of Glyceraldehyde-3-phosphate dehydrogenase (P04406 whole entry): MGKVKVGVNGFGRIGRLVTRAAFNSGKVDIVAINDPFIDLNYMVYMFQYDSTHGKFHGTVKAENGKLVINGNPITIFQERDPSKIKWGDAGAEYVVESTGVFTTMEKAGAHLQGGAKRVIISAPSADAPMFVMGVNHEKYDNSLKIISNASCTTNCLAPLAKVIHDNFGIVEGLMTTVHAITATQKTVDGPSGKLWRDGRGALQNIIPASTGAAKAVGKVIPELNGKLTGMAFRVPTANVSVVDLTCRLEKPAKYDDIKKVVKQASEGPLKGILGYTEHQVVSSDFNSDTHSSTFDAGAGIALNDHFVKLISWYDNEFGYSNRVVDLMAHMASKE

Take `CC(=O)Nc1ccc(OS(=O)(=O)c2ccc([N+](=O)[O-])cc2)cc1`: the IC50 in assay [1] was 3.75 µM (active). For the same compound, the results for the EC50 in assay [2] and in assay [3] were 1.56 µM (active) and > 60 µM (not active), respectively.
As to `CCN1CCN(C2=C(NS(=O)(=O)c3ccc(Br)cc3)C(=O)c3ccccc3C2=O)CC1`, the AC50 is 5.7 µM (active) in assay [4]; 20.9 µM (active) in [5]; > 70 µM (inactive) in [6]; 4.5 µM (active) in [7]; 34.3 µM (active) in assay [8]; 55.1 µM (active) in assay [9]. The AC50 in assay [10] was > 70 µM (inactive); in [12] it was 48.4 µM (active); in assay [13], 20.9 µM (active); in assay [14], 46.2 µM (active); in [15], 8.92 µM (active); in assay [16] it was > 70 µM (inactive). The AC50 in assay [17] was > 70 µM (inactive); in assay [18], 17.3 µM (active). Besides, in [11], the IC50 was 24.3 µM (active).
In the case of `CCOc1ccc(OCc2ccc(C(=O)OCc3ccccn3)o2)cc1`, the EC50 in assay [19] is > 50 µM (not active). The IC50 is > 100 µM (not active) in [20] and 36 µM (active) in assay [21].
